The results in this text go back to patent US20250122182A1 (Isosterix, Inc., priority 2023, published 2025).

The target of the assay is Recombinant KAT6A/MOZ (488-778) protein (Homo sapiens (Human), UniProt Q92794). Description: KAT6A AlphaLISA Inhibition Screening Assay. Format: biochemical. The settings on record: for inhibition at 1 µM: read-out: Average Kat6A % inhibition @ 1 μM; for inhibition at 1 µM / Average Kat6A % inhibition @ 1 μM: 1 μM test compound; for inhibition at 10 µM: read-out: Average Kat6A % inhibition @ 10 μM; for inhibition at 10 µM / Average Kat6A % inhibition @ 10 μM: 10 μM test compound. In outline:
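25 nM KAT6A (488-778) pre-incubated 60 or 10 min with compound (10-point, 3-fold from 10 μM), then 400 nM acetyl-CoA and 200 nM biotin-H3(1-21) peptide added for 120 min at RT in pH 8.0 Tris buffer with 330 nM TSA. Acetylation read by AlphaLISA (anti-acetyl-lysine acceptor/streptavidin donor beads); % inhibition vs vehicle.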
(In general: In Alpha technology, singlet oxygen from a donor bead excites a nearby acceptor bead.)

Structures are written as SMILES.

Sequence of Recombinant KAT6A/MOZ (488-778) protein (Q92794 488-778): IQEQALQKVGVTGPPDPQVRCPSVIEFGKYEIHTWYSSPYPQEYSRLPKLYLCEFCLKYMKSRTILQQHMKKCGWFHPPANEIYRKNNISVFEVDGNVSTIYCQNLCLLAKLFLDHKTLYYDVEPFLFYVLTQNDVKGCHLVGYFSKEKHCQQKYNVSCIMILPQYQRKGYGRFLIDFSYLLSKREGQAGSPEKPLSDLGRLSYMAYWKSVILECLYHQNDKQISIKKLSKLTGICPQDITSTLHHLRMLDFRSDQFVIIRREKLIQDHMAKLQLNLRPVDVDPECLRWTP

Usually inhibition stands for the share of the control response that was lost under treatment. Take `C=C(F)C(=O)NCc1cnn(Cc2cc(OC)c3c(NS(=O)(=O)c4cc(CC)ccc4OCCN4CCOC4=O)noc3c2)c1` [Syn. Ex. 78, N-((1-((3-((5-ethyl-2-(2-(2-oxooxazolidin-3-yl)ethoxy)phenyl)sulfonamido)-4-methoxybenzo[d]isoxazol-6-yl)methyl)-1H-pyrazol-4-yl)methyl)-2-fluoroacrylamide]: the inhibition at 1 µM turned out to be 100% and the inhibition at 10 µM turned out to be 100%.
In the case of `C=C(F)C(=O)NCc1cnn(Cc2cc(OC)c3c(NS(=O)(=O)c4cc(CC)ccc4OCCNC(=O)OC)noc3c2)c1` [Syn. Ex. 79, methyl (2-(4-ethyl-2-(N-(6-((4-((2-fluoroacrylamido)methyl)-1H-pyrazol-1-yl)methyl)-4-methoxybenzo[d]isoxazol-3-yl)sulfamoyl)phenoxy)ethyl)carbamate], the inhibition at 1 µM came to 99% and the inhibition at 10 µM stood at 100%.
The matching figures for `C=C(F)C(=O)NCc1cnn(Cc2cc(OC)c3c(NS(=O)(=O)c4cc(CC)ccc4OCc4nc[nH]n4)noc3c2)c1` [Syn. Ex. 80, N-((1-((3-((2-((1H-1,2,4-triazol-3-yl)methoxy)-5-ethylphenyl)sulfonamido)-4-methoxybenzo[d]isoxazol-6-yl)methyl)-1H-pyrazol-4-yl)methyl)-2-fluoroacrylamide]: 100% and 100%.
On the same counts, the results for `CCc1ccc(OCCNC(C)=O)c(S(=O)(=O)Nc2noc3cc(Cn4cc(CNC(=O)OC)cn4)cc(OC)c23)c1` [Syn. Ex. 81, methyl ((1-((3-((2-(2-acetamidoethoxy)-5-ethylphenyl)sulfonamido)-4-methoxybenzo[d]isoxazol-6-yl)methyl)-1H-pyrazol-4-yl)methyl)carbamate] are 91% and 99%.
On the same counts, the results for `C=C(F)C(=O)NCc1cnn(Cc2cc(OC)c3c(NS(=O)(=O)c4cc(CC)ccc4OCCNC(C)=O)noc3c2)c1` [Syn. Ex. 82, N-((1-((3-((2-(2-acetamidoethoxy)-5-ethylphenyl)sulfonamido)-4-methoxybenzo[d]isoxazol-6-yl)methyl)-1H-pyrazol-4-yl)methyl)-2-fluoroacrylamide] are 94% and 99%.
With `CCc1ccc(OCCC#N)c(S(=O)(=O)Nc2noc3cc(Cn4cc(CNC(=O)OC)cn4)cc(OC)c23)c1` [Syn. Ex. 83, methyl ((1-((3-((2-(2-cyanoethoxy)-5-ethylphenyl)sulfonamido)-4-methoxybenzo[d]isoxazol-6-yl)methyl)-1H-pyrazol-4-yl)methyl)carbamate], the inhibition at 1 µM is 98% and the inhibition at 10 µM was 99%.
On the same counts, the results for `C=C(F)C(=O)NCc1cnn(Cc2cc(OC)c3c(NS(=O)(=O)c4cc(CC)ccc4OCCC#N)noc3c2)c1` [Syn. Ex. 84, N-((1-((3-((2-(2-cyanoethoxy)-5-ethylphenyl)sulfonamido)-4-methoxybenzo[d]isoxazol-6-yl)methyl)-1H-pyrazol-4-yl)methyl)-2-fluoroacrylamide] are 100% and 100%.
In the case of `C#CC(=O)NCc1cnn(Cc2cc(OC)c3c(NS(=O)(=O)c4c(OC)ccnc4OC)noc3c2)c1` [Syn. Ex. 85, N-((1-((3-((2,4-dimethoxypyridine)-3-sulfonamido)-4-methoxybenzo[d]isoxazol-6-yl)methyl)-1H-pyrazol-4-yl)methyl)propiolamide], the “Average Kat6A % inhibition @ 1 μM” value is recorded as 91% and the “Average Kat6A % inhibition @ 10 μM” value is recorded as 95%.
The matching figures for `COC(=O)NCc1cnn(Cc2cc(OC)c3c(NS(=O)(=O)c4c(OC)ccnc4OC)noc3c2)c1` [Syn. Ex. 86, methyl ((1-((3-((2,4-dimethoxypyridine)-3-sulfonamido)-4-methoxybenzo[d]isoxazol-6-yl)methyl)-1H-pyrazol-4-yl)methyl)carbamate]: 86% and 100%.
On the same counts, the results for `C=C(F)C(=O)NCc1cnn(Cc2cc(OC)c3c(NS(=O)(=O)c4c(OC)ccnc4OC)noc3c2)c1` [Syn. Ex. 87, N-((1-((3-((2,4-dimethoxypyridine)-3-sulfonamido)-4-methoxybenzo[d]isoxazol-6-yl)methyl)-1H-pyrazol-4-yl)methyl)-2-fluoroacrylamide] are 95% and 100%.
With `COC(=O)NCc1cnn(Cc2cc(OC)c3c(NS(=O)(=O)c4cc(C)ccc4OC)noc3c2)c1` [Syn. Ex. 88, methyl ((1-((4-methoxy-3-((2-methoxy-5-methylphenyl)sulfonamido)benzo[d]isoxazol-6-yl)methyl)-1H-pyrazol-4-yl)methyl)carbamate], the inhibition at 1 µM turned out to be 99% and the inhibition at 10 µM worked out at 98%.
On the same counts, the results for `C=C(F)C(=O)NCc1cnn(Cc2cc(OC)c3c(NS(=O)(=O)c4cc(C)ccc4OC)noc3c2)c1` [Syn. Ex. 89, 2-fluoro-N-((1-((4-methoxy-3-((2-methoxy-5-methylphenyl)sulfonamido)benzo[d]isoxazol-6-yl)methyl)-1H-pyrazol-4-yl)methyl)acrylamide] are 100% and 100%.
Take `CCc1ccc(OC)c(S(=O)(=O)Nc2noc3cc(Cn4cc(CNC(N)=O)cn4)cc(OC)c23)c1` [Syn. Ex. 90, 5-ethyl-2-methoxy-N-(4-methoxy-6-((4-(ureidomethyl)-1H-pyrazol-1-yl)methyl)benzo[d]isoxazol-3-yl)benzenesulfonamide]: the inhibition at 1 µM stood at 99% and the inhibition at 10 µM came to 100%.
Regarding `CCc1ccc(OC)c(S(=O)(=O)Nc2noc3cc(Cn4cc(CNC(=O)NC)cn4)cc(OC)c23)c1` [Syn. Ex. 91, 5-ethyl-2-methoxy-N-(4-methoxy-6-((4-((3-methylureido)methyl)-1H-pyrazol-1-yl)methyl)benzo[d]isoxazol-3-yl)benzenesulfonamide], the inhibition at 1 µM is 99% and the inhibition at 10 µM was determined as 100%.
Turning to `C=C(F)C(=O)NCc1cnn(Cc2cc(OC)c3c(NS(=O)(=O)c4cc(CC)ccc4OCc4ccccc4)noc3c2)c1` [Syn. Ex. 92, N-((1-((3-((2-(benzyloxy)-5-ethylphenyl)sulfonamido)-4-methoxybenzo[d]isoxazol-6-yl)methyl)-1H-pyrazol-4-yl)methyl)-2-fluoroacrylamide], the inhibition at 1 µM came out at 100% and the inhibition at 10 µM worked out at 100%.
Regarding `CCc1ccc(OCc2ccccc2)c(S(=O)(=O)Nc2noc3cc(Cn4cc(CNC(=O)OC)cn4)cc(OC)c23)c1` [Syn. Ex. 93, methyl ((1-((3-((2-(benzyloxy)-5-ethylphenyl)sulfonamido)-4-methoxybenzo[d]isoxazol-6-yl)methyl)-1H-pyrazol-4-yl)methyl)carbamate], the inhibition at 1 µM worked out at 90% and the inhibition at 10 µM came to 98%.
On the same counts, the results for `C=C(F)C(=O)NCc1cnn(Cc2cc(OC)c3c(NS(=O)(=O)c4cc(CC)ccc4OCc4ccnc(OC)c4)noc3c2)c1` [Syn. Ex. 94, N-((1-((3-((5-ethyl-2-((2-methoxypyridin-4-yl)methoxy)phenyl)sulfonamido)-4-methoxybenzo[d]isoxazol-6-yl)methyl)-1H-pyrazol-4-yl)methyl)-2-fluoroacrylamide] are 100% and 100%.
On to `CCc1ccc(OCc2ccnc(OC)c2)c(S(=O)(=O)Nc2noc3cc(Cn4cc(CNC(=O)OC)cn4)cc(OC)c23)c1` [Syn. Ex. 95, methyl ((1-((3-((5-ethyl-2-((2-methoxypyridin-4-yl)methoxy)phenyl)sulfonamido)-4-methoxybenzo[d]isoxazol-6-yl)methyl)-1H-pyrazol-4-yl)methyl)carbamate], for which the inhibition at 1 µM is 100% and the inhibition at 10 µM is 100%.
For the molecule `C=C(F)C(=O)NCc1cnn(Cc2cc3onc(NS(=O)(=O)c4cc(CC)ccc4OC)c3c3c2CCCO3)c1` [Syn. Ex. 96, N-((1-((9-((5-ethyl-2-methoxyphenyl)sulfonamido)-3,4-dihydro-2H-chromeno[8,7-d]isoxazol-5-yl)methyl)-1H-pyrazol-4-yl)methyl)-2-fluoroacrylamide], the inhibition at 1 µM was found to be 100% and the inhibition at 10 µM amounted to 100%.
In the case of `CCc1ccc(OC)c(S(=O)(=O)Nc2noc3cc(Cn4cc(CNC(=O)OC)cn4)c4c(c23)OCCC4)c1` [Syn. Ex. 97, methyl ((1-((9-((5-ethyl-2-methoxyphenyl)sulfonamido)-3,4-dihydro-2H-chromeno[8,7-d]isoxazol-5-yl)methyl)-1H-pyrazol-4-yl)methyl)carbamate], the inhibition at 1 µM was found to be 100% and the inhibition at 10 µM was 100%.
As to `CCc1ccc(OC)c(S(=O)(=O)Nc2noc3cc(Oc4ncc(CN[S+]([O-])C(C)(C)C)o4)cc(OC)c23)c1` (stereo not drawn) [Syn. Ex. 98, N-(6-((5-(((tert-Butylsulfinyl)amino)methyl)oxazol-2-yl)oxy)-4-methoxybenzo[d]isoxazol-3-yl)-5-ethyl-2-methoxybenzenesulfonamide], the inhibition at 1 µM is 78% and the inhibition at 10 µM came out at 92%.
On the same counts, the results for `C=C(F)C(=O)NCc1cnc(Oc2cc(OC)c3c(NS(=O)(=O)c4cc(CC)ccc4OC)noc3c2)o1` [Syn. Ex. 99, N-((2-((3-((5-ethyl-2-methoxyphenyl)sulfonamido)-4-methoxybenzo[d]isoxazol-6-yl)oxy)oxazol-5-yl)methyl)-2-fluoroacrylamide] are 91% and 100%.
On the same counts, the results for `CCc1ccc(OC)c(S(=O)(=O)Nc2noc3cc(Oc4ncc(CNC(=O)OC)o4)cc(OC)c23)c1` [Syn. Ex. 100, methyl ((2-((3-((5-ethyl-2-methoxyphenyl)sulfonamido)-4-methoxybenzo[d]isoxazol-6-yl)oxy)oxazol-5-yl)methyl)carbamate] are 92% and 100%.
